ChEMBL document CHEMBL1128825, “Synthetic inhibitors of interleukin-6 II: 3,5-diaryl pyridines and meta-terphenyls” (Bioorg Med Chem Lett, 1995)
pIC50: −log10 of the molar value. Activity calls are given as the source filed them. No cut-off for these calls is given here.

Key:
[1] = test system: WEHI265.1; assay: In vitro inhibitory activity against lipopolysaccharide (LPS)-induced IL-6 production in murine myelomonocytic uM; type: functional, Mus musculus; set-up: concentration or dose not given beside the values
[2] = test system: Mus musculus; assay: In vivo inhibition of serum IL-6 after intraperitoneal administration of 25 mpk dose.; type: functional; details: ip
[3] = test system: Mus musculus; assay: In vivo inhibition of serum IL-1 after i.p. administration of 25 mpk dose; showed no inhibition; type: functional, organism-based
[4] = test system: Mus musculus; assay: Effective dose required for in vivo inhibition of serum IL-6.; type: functional
[5] = test system: Mus musculus; assay: In vivo inhibition of TNF- alpha after intraperitoneal administration of 25 mpk dose; showed no inhibition; type: functional, organism-based
[6] = species on record: Mus musculus; assay: Inhibitory activity against serum IL-6.; type: functional, organism-based
[7] = test system: Mus musculus; assay: In vivo inhibition of serum IL-5 after i.p. administration of 25 mpk dose; showed no inhibition; type: functional, organism-based
[8] = test system: WEHI265.1; assay: In vitro inhibitory activity against lipopolysaccharide (LPS) -induced IL-6 production in murine myelomonocytic uM; cytotoxic; type: functional, cell-based; details: Mus musculus
[9] = test system: Mus musculus; assay: In vivo inhibition of serum IL-6 after peroral administration of 25 mpk dose.; type: functional; details: po

SMILES | Inhibition [1] | further results
COc1ccc(-c2ccc(-c3ccc(OC)cc3)nc2)cc1 | 30% | 
Oc1ccc(-c2cnc(O)c(-c3ccc(O)cc3)c2)cc1 | 49% | 
Oc1ccccc1-c1cncc(-c2ccccc2O)c1 | 23% | 
Oc1ccc(-c2cncc(-c3ccc(O)cc3)n2)cc1 | 55% | 
Cc1cncc(-c2ccc(O)cc2)c1 | 7% | 
Fc1ccc(-c2cncc(-c3ccc(F)cc3)c2)cc1 | 44% | 
[O-][n+]1cc(-c2ccc(O)cc2)cc(-c2ccc(O)cc2)c1 | 37% | 
Oc1ccc(-c2cncc(Cl)c2)cc1 | 0% | 
COc1ccccc1-c1cccc(-c2ccccc2OC)c1 | 22% | 
Oc1ccc(-c2cc(-c3ccc(O)cc3)c(Cl)nc2Cl)cc1 | 52% | 
Oc1cccc(-c2cccc(-c3cccc(O)c3)c2)c1 | 21% | 
Oc1ccc(-c2cccc(-c3ccc(O)cc3)c2)cc1 | 85% | inhibition in vivo at 25 mg/kg [2]: 88%; Activity [3]: inactive; ED50 [4]: 1.5 mg/kg; Activity [5]: inactive; pIC50 [6]: 5.82; Activity [7]: inactive
CN(C)Cc1ccc(-c2cncc(-c3ccc(CN(C)C)cc3)c2)cc1 | 60% | 
Oc1ccccc1-c1cccc(-c2ccccc2O)c1 | 21% | 
COc1ccc(-c2cncc(-c3ccc(OC)cc3)c2)cc1 | 0% | 
COc1ccc(-c2cccc(-c3ccc(OC)cc3)c2)cc1 | 75% | 
Oc1ccc(-c2cccc(-c3ccc(O)cc3)n2)cc1 | 23% | 
c1ccc(-c2cncc(-c3ccccc3)c2)cc1 | 8% | 
Oc1ccc(-c2cncc(-c3ccc(O)cc3)c2Cl)cc1 | 60% | 
CN(C)Cc1ccc(-c2cccc(-c3ccc(CN(C)C)cc3)c2)cc1 |  | inhibition [8]: Toxic
Oc1cccc(-c2cncc(-c3cccc(O)c3)c2)c1 | 59% | 
Fc1ccc(-c2ccc(-c3ccc(F)cc3)nc2)cc1 | 47% | 
Oc1ccc(-c2cncc(-c3ccc(O)cc3)c2)cc1 | 73% | inhibition in vivo at 25 mg/kg [2]: 63%; Activity [3]: inactive; ED50 [4]: 2.8 mg/kg; Activity [5]: inactive; inhibition in vivo at 25 mg/kg [9]: 71%; pIC50 [6]: 6.40; Activity [7]: inactive
Oc1ccc(-c2cccnc2)cc1 | 0% | 
Oc1ccc(-c2ccc(-c3ccc(O)cc3)nc2)cc1 | 27% | 
Oc1ccc(-c2cnc(Cl)c(-c3ccc(O)cc3)c2)cc1 | 61% | 
COc1cccc(-c2cccc(-c3cccc(OC)c3)c2)c1 | 24% | 
N#Cc1ncc(-c2ccc(O)cc2)cc1-c1ccc(O)cc1 | 40% | 
COc1ccc(-c2cccc(-c3ccc(OC)cc3)n2)cc1 | 55% | 
Fc1ccc(-c2cccc(-c3ccc(F)cc3)n2)cc1 | 44% | 
